Assays:
Lyn enzyme = target: T1, Lyn enzyme (Homo sapiens, UniProt P07948); assay: Lyn enzyme activity, IMAP fluorescence polarization assay; assay type: biochemical; details: 60 min pre-incubation, 2 μM ATP (Km)
T1 construct: purchased Millipore 14-510
Method: Lyn enzyme activity is measured using the IMAP (immobilized metal ion affinity-based fluorescence polarization) assay as outlined below.
Lyn enzyme (Millipore catalog#14-510), is diluted to 250 mU/mL in KR buffer (10 mM Tris-HCl, 10 mM MgCl2, 0.01% Tween-20, 0.05% NaN3, 1 mM DTT, 2 mM MnCl2, pH 7.2). Serial dilution log 10 from 2 mM to 63.2 nM of test compounds are made in 100% DMSO. The dilutions in DMSO are then diluted 50-fold in KR-buffer of which 5 μl is used in the assay, leading to a final compound concentration range in the assay from 10 μM to 0.316 nM. 5 μL/well of test compound in KR buffer (final DMSO concentration in the assay is 1%) is mixed with 5 μl/well of 250 mU/mL Lyn enzyme (final concentration in the assay is 62.5 mU/mL). Test compounds and Lyn enzyme are pre-incubated 60 minutes at room temperature, before adding 5 μL/well of 400 nM Fluorescin labeled substrate peptide (Blk/Lyntide substrate, e.g. #R7188/#R7233, Molecular Devices) in KR-buffer. Final peptide substrate concentration in assay is 100 nM. The kinase assay is started by adding 5 μL/well of 8 μM ATP in KR-buffer (final ATP concentration is 2 μM ATP, Km ATP in Lyn IMAP assay). Following incubation for 2 h at room temperature the enzyme reaction is stopped by adding 40 μL/well IMAP Progressive Binding Solution (according to suppliers (Molecular Devices) protocol using 75% 1× buffer A and 25% 1× buffer B with 1:600 Progressive Binding Solution). After 60 min incubation at room temperature in the dark the FP signal is read. Fluorescence at 535 nm is measured using parallel and perpendicular filters to determine differences in rotation due to binding of the phosphorylated substrate peptide to the beads. Values are calculated as percentage of the difference in readout (ΔmPi) of the controls with and without ATP. EC50 values are determined by curve fitting of the experimental results using Activity Base.

FynT enzyme = target: T2, FynT enzyme (Homo sapiens, UniProt P06241); assay: FynT enzyme activity, IMAP fluorescence polarization assay; assay type: biochemical; details: 60 min pre-incubation, 0.2 μM ATP (Km)
T2 construct: purchased Biomol SE-287
Method: FynT enzyme activity is measured using the IMAP (immobilized metal ion affinity-based fluorescence polarization) assay as outlined below.
FynT enzyme (Biomol catalog# SE-287), is diluted to 0.5 μg/mL in KR buffer (10 mM Tris-HCl, 10 mM MgCl2, 0.01% Tween-20, 0.05% NaN3, 1 mM DTT, 2 mM MnCl2, pH 7.2). Serial dilution log 10 from 2 mM to 63.2 nM of test compounds are made in 100% DMSO. The dilutions in DMSO are then diluted 50-fold in KR-buffer of which 5 μl is used in the assay, leading to a final compound concentration range in the assay from 10 μM to 0.316 nM. 5 μL/well of test compound in KR buffer (final DMSO concentration in the assay is 1%) is mixed with 5 μl/well of 0.5 μg/mL FynT enzyme (final concentration in the assay is 125 ng/mL). Test compounds and FynT enzyme are pre-incubated 60 minutes at room temperature, before adding 5 μL/well of 400 nM Fluorescin labeled substrate peptide (p34cdc2 substrate peptide, e.g. #R7157/#R7172, Molecular Devices) in KR-buffer. Final peptide substrate concentration in assay is 100 nM. The kinase assay is started by adding 5 μL/well of 0.8 μM ATP in KR-buffer (final ATP concentration is 0.2 μM ATP, Km ATP in FynT IMAP assay). Following incubation for 2 h at room temperature the enzyme reaction is stopped by adding 40 μL/well IMAP Progressive Binding Solution (according to suppliers (Molecular Devices) protocol using 75% 1× buffer A and 25% 1× buffer B with 1:600 Progressive Binding Solution). After 60 min incubation at room temperature in the dark the FP signal is read. Fluorescence at 535 nm is measured using parallel and perpendicular filters to determine differences in rotation due to binding of the phosphorylated substrate peptide to the beads. Values are calculated as percentage of the difference in readout (ΔmPi) of the controls with and without ATP. EC50 values are determined by curve fitting of the experimental results using Activity Base.

T1 sequence (P07948 whole entry): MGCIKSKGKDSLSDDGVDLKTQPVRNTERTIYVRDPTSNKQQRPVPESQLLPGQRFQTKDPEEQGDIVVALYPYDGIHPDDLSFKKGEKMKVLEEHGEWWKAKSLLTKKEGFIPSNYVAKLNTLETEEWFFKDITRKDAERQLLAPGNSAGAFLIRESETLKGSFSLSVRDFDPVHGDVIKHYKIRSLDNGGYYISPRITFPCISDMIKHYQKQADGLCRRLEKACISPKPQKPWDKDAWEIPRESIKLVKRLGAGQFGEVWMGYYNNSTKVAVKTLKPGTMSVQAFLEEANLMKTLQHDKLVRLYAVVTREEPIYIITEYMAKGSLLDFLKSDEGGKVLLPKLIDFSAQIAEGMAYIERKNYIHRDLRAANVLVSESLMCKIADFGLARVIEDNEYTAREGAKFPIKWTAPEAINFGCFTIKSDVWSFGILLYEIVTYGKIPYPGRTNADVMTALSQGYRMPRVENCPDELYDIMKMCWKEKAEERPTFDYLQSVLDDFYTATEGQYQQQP
T2 sequence (P06241 1-534 isoform P06241-2): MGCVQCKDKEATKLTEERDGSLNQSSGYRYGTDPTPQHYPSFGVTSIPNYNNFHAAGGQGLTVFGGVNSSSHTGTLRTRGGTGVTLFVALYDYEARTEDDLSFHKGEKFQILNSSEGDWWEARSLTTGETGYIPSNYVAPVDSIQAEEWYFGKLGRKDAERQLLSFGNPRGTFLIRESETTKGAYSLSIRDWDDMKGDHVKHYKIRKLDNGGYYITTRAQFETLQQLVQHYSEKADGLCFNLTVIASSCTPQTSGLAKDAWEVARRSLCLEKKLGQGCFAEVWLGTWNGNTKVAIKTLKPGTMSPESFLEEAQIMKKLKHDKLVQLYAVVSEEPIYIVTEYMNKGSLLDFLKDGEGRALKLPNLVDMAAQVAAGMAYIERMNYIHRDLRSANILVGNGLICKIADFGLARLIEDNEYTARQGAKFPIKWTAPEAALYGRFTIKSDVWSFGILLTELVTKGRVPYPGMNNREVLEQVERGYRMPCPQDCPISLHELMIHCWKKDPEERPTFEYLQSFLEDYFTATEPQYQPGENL

EC50 (Lyn enzyme) [nM]	EC50 (FynT enzyme) [nM]	SMILES
≥ 1000	≥ 1000	C=CC(=O)N1CCCC[C@H]1c1nc(-c2ccc(C(=O)Nc3cc(CCC)ccn3)cc2)c2c(C)nccn12 [Example 2, (S)-4-(3-(1-Acryloylpiperidin-2-yl)-8-methylimidazo[1,5-a]pyrazin-1-yl)-N-(4-propylpyridin-2-yl)benzamide]
≥ 1000	≥ 1000	CCCc1ccnc(NC(=O)c2ccc(-c3nc([C@@H]4CCCCN4C(=O)/C=C/CN(C)C)n4ccnc(C)c34)cc2)c1 [Example 3, (S,E)-4-(3-(1-(4-(Dimethylamino)but-2-enoyl)piperidin-2-yl)-8-methylimidazo[1,5-a]pyrazin-1-yl)-N-(4-propylpyridin-2-yl)benzamide]
≥ 1000	≥ 1000	C=CS(=O)(=O)N1CCCC[C@H]1c1nc(-c2ccc(C(=O)Nc3cc(CCC)ccn3)cc2)c2c(C)nccn12 [Example 4, (S)-4-(8-Methyl-3-(1-(vinylsulfonyl)piperidin-2-yl)imidazo[1,5-a]pyrazin-1-yl)-N-(4-propylpyridin-2-yl)benzamide]
≥ 1000	≥ 1000	COC/C=C/C(=O)N[C@@H](C)c1nc(-c2ccc(C(=O)Nc3cc(C(F)(F)F)ccn3)cc2)c2c(C)nccn12 [Example 6, (S,E)-4-(3-(1-(4-Methoxybut-2-enamido)ethyl)-8-methylimidazo[1,5-a]pyrazin-1-yl)-N-(4-(trifluoromethyl)pyridin-2-yl)benzamide]
≥ 1000	≥ 1000	CC#CC(=O)N[C@@H](C)c1nc(-c2ccc(C(=O)Nc3cc(C(F)(F)F)ccn3)cc2)c2c(C)nccn12 [Example 7, (S)-4-(3-(1-But-2-ynamidoethyl)-8-methylimidazo[1,5-a]pyrazin-1-yl)-N-(4-(trifluoromethyl)pyridin-2-yl)benzamide]
≥ 1000	≥ 1000	C=CC(=O)N[C@@H](C)c1nc(-c2ccc(C(=O)Nc3cc(C(F)(F)F)ccn3)cc2)c2c(C)nccn12 [Example 8, (S)-4-(3-(1-Acrylamidoethyl)-8-methylimidazo[1,5-a]pyrazin-1-yl)-N-(4-(trifluoromethyl)pyridin-2-yl)benzamide]
≥ 1000	≥ 1000	C=CC(=O)N1CCC[C@H]1c1nc(-c2ccc(C(=O)Nc3cc(CCC)ccn3)cc2)c2c(C)nccn12 [Example 9, (S)-4-(3-(1-Acryloylpyrrolidin-2-yl)-8-methylimidazo[1,5-a]pyrazin-1-yl)-N-(4-propylpyridin-2-yl)benzamide]
≥ 1000	≥ 1000	C=CC(=O)N1CCC[C@H]1c1nc(-c2ccc(C(=O)Nc3cc(C(F)(F)F)ccn3)cc2)c2c(C)nccn12 [Example 10, (S)-4-(3-(1-Acryloylpyrrolidin-2-yl)-8-methylimidazo[1,5-a]pyrazin-1-yl)-N-(4-(trifluoromethyl)pyridin-2-yl)benzamide]
≥ 1000	≥ 1000	C=CC(=O)N1CCC[C@H]1c1nc(-c2ccc(C(=O)Nc3cc(C#N)ccn3)cc2)c2c(C)nccn12 [Example 13, (S)-4-(3-(1-Acryloylpyrrolidin-2-yl)-8-methylimidazo[1,5-a]pyrazin-1-yl)-N-(4-cyanopyridin-2-yl)benzamide]
≥ 1000	≥ 1000	CC#CC(=O)N1CCC[C@H]1c1nc(-c2ccc(C(=O)Nc3cc(C)ccn3)cc2)c2c(C)nccn12 [Example 15, (S)-4-(3-(1-but-2-ynoylpyrrolidin-2-yl)-8-methylimidazo[1,5-a]pyrazin-1-yl)-N-(4-methylpyridin-2-yl)benzamide]
≥ 1000	≥ 1000	CCCc1ccnc(NC(=O)c2ccc(-c3nc([C@H](C)N(C)C(=O)/C=C/CN(C)C)n4ccnc(C)c34)cc2)c1 [Example 18, (S,E)-4-(3-(1-(4-(dimethylamino)-N-methylbut-2-enamido)ethyl)-8-methylimidazo[1,5-a]pyrazin-1-yl)-N-(4-propylpyridin-2-yl)benzamide]
≥ 1000	≥ 1000	C=CC(=O)N1CCC[C@H]1c1nc(-c2ccc(C(=O)Nc3ccccn3)cc2)c2c(C)nccn12 [Example 19, (S)-4-(3-(1-acryloylpyrrolidin-2-yl)-8-methylimidazo[1,5-a]pyrazin-1-yl)-N-(pyridin-2-yl)benzamide]
≥ 1000	≥ 1000	Cc1nccn2c([C@@H]3CCCCN3C(=O)/C=C/CN3CCCC3)nc(-c3ccc(C(=O)Nc4cc(C(F)(F)F)ccn4)cc3)c12 [Example 21, (S,E)-4-(8-methyl-3-(1-(4-(pyrrolidin-1-yl)but-2-enoyl)piperidin-2-yl)imidazo[1,5-a]pyrazin-1-yl)-N-(4-(trifluoromethyl)pyridin-2-yl)benzamide]
≥ 1000	≥ 1000	CC#CC(=O)N1CCCC[C@H]1c1nc(-c2ccc(C(=O)Nc3cc(CCC)ccn3)cc2)c2c(C)nccn12 [Example 22, (S)-4-(3-(1-but-2-ynoylpiperidin-2-yl)-8-methylimidazo[1,5-a]pyrazin-1-yl)-N-(4-propylpyridin-2-yl)benzamide]
≥ 1000	≥ 1000	C=CC(=O)N[C@@H](C)c1nc(-c2ccc(C(=O)Nc3cc(CCC)ccn3)cc2)c2c(C)nccn12 [Example 23, (S)-4-(3-(1-acrylamidoethyl)-8-methylimidazo[1,5-a]pyrazin-1-yl)-N-(4-propylpyridin-2-yl)benzamide]
≥ 1000	≥ 1000	CC#CC(=O)N(C)[C@@H](C)c1nc(-c2ccc(C(=O)Nc3cc(CCC)ccn3)cc2)c2c(C)nccn12 [Example 24, (S)-4-(8-methyl-3-(1-(N-methylbut-2-ynamido)ethyl)imidazo[1,5-a]pyrazin-1-yl)-N-(4-propylpyridin-2-yl)benzamide]
≥ 1000	≥ 1000	Cc1nccn2c([C@@H]3CCCN3C(=O)/C=C/CN3CCCC3)nc(-c3ccc(C(=O)Nc4ccccn4)cc3)c12 [Example 25, (S,E)-4-(8-methyl-3-(1-(4-(pyrrolidin-1-yl)but-2-enoyl)pyrrolidin-2-yl)imidazo[1,5-a]pyrazin-1-yl)-N-(pyridin-2-yl)benzamide]
≥ 1000	≥ 1000	C=CC(=O)N1CCCC[C@H]1c1nc(-c2ccc(C(=O)Nc3cc(C(F)(F)F)ccn3)cc2)c2c(C)nccn12 [Example 27, (S)-4-(3-(1-acryloylpiperidin-2-yl)-8-methylimidazo[1,5-a]pyrazin-1-yl)-N-(4-(trifluoromethyl)pyridin-2-yl)benzamide]
≥ 1000	≥ 1000	CCCc1ccnc(NC(=O)c2ccc(-c3nc([C@H](C)NC(=O)/C=C/CN(C)C)n4ccnc(C)c34)cc2)c1 [Example 28, (S,E)-4-(3-(1-(4-(dimethylamino)but-2-enamido)ethyl)-8-methylimidazo[1,5-a]pyrazin-1-yl)-N-(4-propylpyridin-2-yl)benzamide]
≥ 1000	≥ 1000	CC#CC(=O)N1CCCC[C@H]1c1nc(-c2ccc(C(=O)Nc3cc(C(F)(F)F)ccn3)cc2)c2c(C)nccn12 [Example 29, (S)-4-(3-(1-but-2-ynoylpiperidin-2-yl)-8-methylimidazo[1,5-a]pyrazin-1-yl)-N-(4-(trifluoromethyl)pyridin-2-yl)benzamide]
